The test system of this test is L1210 leukemia ip in BDF1 mice, survival T/C. As to the kind of experiment: NCI In Vivo Anticancer Drug Screen. Data for tumor model L1210 Leukemia (intraperitoneal) in B6D2F1 (BDF1) mice. Particulars: higher = longer survival. In a few lines: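 Tumor was transplanted into mice, which were then dosed with test compound or vehicle alone. Survival was recorded for each group, and the treated figure was expressed relative to the control figure.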

Experimental findings from PubChem BioAssay AID248 (DTP/NCI, 2004) are described below.

“And” between values parts separate entries of the source, which are not always exact repeats. Equal entries are not always repeated. Toxic doses and inconclusive results are not listed.

`CCN(CC)CCNc1ccc(CO)c2sc3ccccc3c(=O)c12`: the T/C (endpoint: mean survival time, dose: 8.0 mg/kg/injection, schedule: Q01DX009 (ip), vehicle: clinical formulation) was 108 % of control; the T/C (endpoint: mean survival time, dose: 8.0 mg/kg/injection, schedule: Q01DX009 (ip), vehicle: water) is 106 % of control; the T/C (endpoint: mean survival time, dose: 16.0 mg/kg/injection, schedule: Q01DX009 (ip), vehicle: clinical formulation) is 112 % of control; the T/C (endpoint: mean survival time, dose: 16.0 mg/kg/injection, schedule: Q01DX009 (ip), vehicle: water) is 92 % of control; the T/C (endpoint: mean survival time, dose: 18.75 mg/kg/injection, schedule: Q01DX009 (ip), vehicle: saline) is 118 % of control; the T/C (endpoint: mean survival time, dose: 22.0 mg/kg/injection, schedule: Q01DX009 (ip), vehicle: saline) is 115 % of control. Besides, the T/C reads like this: (endpoint: mean survival time, dose: 32.0 mg/kg/injection, schedule: Q01DX009 (ip), vehicle: clinical formulation) 121 % of control; (endpoint: mean survival time, dose: 32.0 mg/kg/injection, schedule: Q01DX009 (ip), vehicle: water) 117 % of control; (endpoint: mean survival time, dose: 35.0 mg/kg/injection, schedule: Q01DX009 (ip), vehicle: saline) 123 % of control; (endpoint: mean survival time, dose: 50.0 mg/kg/injection, schedule: Q04DX003 (ip), vehicle: saline) 90 % of control; (endpoint: mean survival time, dose: 64.0 mg/kg/injection, schedule: Q01DX009 (ip), vehicle: clinical formulation) 164 % of control; (endpoint: mean survival time, dose: 64.0 mg/kg/injection, schedule: Q01DX009 (ip), vehicle: water) 157 % of control. The T/C is 120 % of control (endpoint: mean survival time, dose: 81.0 mg/kg/injection, schedule: Q01DX009 (ip), vehicle: Klucel (hydroxypropylcellulose) (HPC)); 102 % of control (endpoint: mean survival time, dose: 100.0 mg/kg/injection, schedule: Q01DX001 (ip), vehicle: saline); 106 % of control (endpoint: mean survival time, dose: 100.0 mg/kg/injection, schedule: Q04DX003 (ip), vehicle: saline); 98 % of control and 105 % of control (endpoint: mean survival time, dose: 112.0 mg/kg/injection, schedule: Q01DX009 (ip), vehicle: saline); 112 % of control (endpoint: mean survival time, dose: 122.0 mg/kg/injection, schedule: Q01DX009 (ip), vehicle: Klucel (hydroxypropylcellulose) (HPC)); 91 % of control (endpoint: mean survival time, dose: 128.0 mg/kg/injection, schedule: Q01DX009 (ip), vehicle: clinical formulation). The T/C by setting is: (endpoint: mean survival time, dose: 128.0 mg/kg/injection, schedule: Q01DX009 (ip), vehicle: water) 110 % of control; (endpoint: mean survival time, dose: 150.0 mg/kg/injection, schedule: Q01DX009 (ip), vehicle: saline) 93 % of control; (endpoint: mean survival time, dose: 200.0 mg/kg/injection, schedule: Q01DX001 (ip), vehicle: saline) 110 % of control; (endpoint: mean survival time, dose: 200.0 mg/kg/injection, schedule: Q01DX009 (ip), vehicle: Klucel (hydroxypropylcellulose) (HPC)) 120 % of control; (endpoint: mean survival time, dose: 200.0 mg/kg/injection, schedule: Q04DX003 (ip), vehicle: saline) 173 % of control; (endpoint: mean survival time, dose: 264.0 mg/kg/injection, schedule: Q01DX001 (ip), vehicle: carboxymethylcellulose (CMC)) 112 % of control. Also, the T/C (endpoint: mean survival time, dose: 264.0 mg/kg/injection, schedule: Q01DX009 (ip), vehicle: carboxymethylcellulose (CMC)) was 124 % of control; the T/C (endpoint: mean survival time, dose: 300.0 mg/kg/injection, schedule: Q04DX003 (ip), vehicle: saline) was 184 % of control; the T/C (endpoint: mean survival time, dose: 400.0 mg/kg/injection, schedule: Q01DX001 (ip), vehicle: carboxymethylcellulose (CMC)) was 157 % of control; the T/C (endpoint: median survival time, dose: 4.0 mg/kg/injection, schedule: Q01DX009 (ip), vehicle: saline) is 90 % of control; the T/C (endpoint: median survival time, dose: 4.0 mg/kg/injection, schedule: Q03HX016 (ip), vehicle: saline) was 100 % of control; the T/C (endpoint: median survival time, dose: 4.0 mg/kg/injection, schedule: Q03HX024 (ip), vehicle: saline) was 100 % of control. The T/C was 100 % of control (endpoint: median survival time, dose: 8.0 mg/kg/injection, schedule: Q01DX009 (ip), vehicle: saline); 100 % of control (endpoint: median survival time, dose: 8.0 mg/kg/injection, schedule: Q03HX008 (ip), vehicle: saline); 100 % of control (endpoint: median survival time, dose: 8.0 mg/kg/injection, schedule: Q03HX016 (ip), vehicle: saline); 105 % of control (endpoint: median survival time, dose: 8.0 mg/kg/injection, schedule: Q03HX024 (ip), vehicle: saline); 110 % of control (endpoint: median survival time, dose: 16.0 mg/kg/injection, schedule: Q01DX009 (ip), vehicle: saline); 100 % of control (endpoint: median survival time, dose: 16.0 mg/kg/injection, schedule: Q01DX009 (sc), vehicle: saline). The T/C (endpoint: median survival time, dose: 16.0 mg/kg/injection, schedule: Q03HX008 (ip), vehicle: saline) was 110 % of control; the T/C (endpoint: median survival time, dose: 16.0 mg/kg/injection, schedule: Q03HX016 (ip), vehicle: saline) is 100 % of control; the T/C (endpoint: median survival time, dose: 32.0 mg/kg/injection, schedule: Q01DX001 (ip), vehicle: saline) was 100 % of control; the T/C (endpoint: median survival time, dose: 32.0 mg/kg/injection, schedule: Q01DX009 (oral), vehicle: saline) is 100 % of control and 120 % of control; the T/C (endpoint: median survival time, dose: 32.0 mg/kg/injection, schedule: Q01DX009 (sc), vehicle: saline) was 115 % of control; the T/C (endpoint: median survival time, dose: 32.0 mg/kg/injection, schedule: Q04DX003 (ip), vehicle: saline) was 100 % of control. The T/C runs as follows: (endpoint: median survival time, dose: 32.0 mg/kg/injection, schedule: Q08DX002 (ip), vehicle: saline) 100 % of control; (endpoint: median survival time, dose: 64.0 mg/kg/injection, schedule: Q01DX001 (ip), vehicle: saline) 100 % of control; (endpoint: median survival time, dose: 64.0 mg/kg/injection, schedule: Q01DX001 (sc), vehicle: saline) 100 % of control; (endpoint: median survival time, dose: 64.0 mg/kg/injection, schedule: Q01DX009 (oral), vehicle: saline) 115 % of control; (endpoint: median survival time, dose: 64.0 mg/kg/injection, schedule: Q04DX003 (ip), vehicle: saline) 110 % of control; (endpoint: median survival time, dose: 64.0 mg/kg/injection, schedule: Q08DX002 (ip), vehicle: saline) 100 % of control. For the same compound, the T/C was 110 % of control (endpoint: median survival time, dose: 128.0 mg/kg/injection, schedule: Q01DX001 (ip), vehicle: saline); 105 % of control (endpoint: median survival time, dose: 128.0 mg/kg/injection, schedule: Q01DX001 (sc), vehicle: saline); 120 % of control (endpoint: median survival time, dose: 128.0 mg/kg/injection, schedule: Q01DX009 (oral), vehicle: saline); 95 % of control (endpoint: median survival time, dose: 128.0 mg/kg/injection, schedule: Q01DX009 (sc), vehicle: saline); 110 % of control and 120 % of control (endpoint: median survival time, dose: 256.0 mg/kg/injection, schedule: Q01DX001 (oral), vehicle: saline); 100 % of control (endpoint: median survival time, dose: 256.0 mg/kg/injection, schedule: Q01DX009 (oral), vehicle: saline). Also, the T/C (endpoint: median survival time, dose: 512.0 mg/kg/injection, schedule: Q01DX001 (oral), vehicle: saline) was 110 % of control and 120 % of control.

`O=C(O)c1ccc(COc2ccc([N+](=O)[O-])cc2Cl)cc1`: the T/C (endpoint: mean survival time, dose: 100.0 mg/kg/injection, schedule: Q01DX009 (ip), vehicle: saline sonified) was 96 % of control; the T/C (endpoint: mean survival time, dose: 100.0 mg/kg/injection, schedule: Q04DX003 (ip), vehicle: saline with Tween-80) was 96 % of control; the T/C (endpoint: mean survival time, dose: 200.0 mg/kg/injection, schedule: Q01DX009 (ip), vehicle: saline sonified) was 97 % of control; the T/C (endpoint: mean survival time, dose: 200.0 mg/kg/injection, schedule: Q04DX003 (ip), vehicle: saline with Tween-80) is 96 % of control; the T/C (endpoint: mean survival time, dose: 400.0 mg/kg/injection, schedule: Q04DX003 (ip), vehicle: saline with Tween-80) is 101 % of control.

Consider `CSc1cc(C)c(OC(=O)Nc2ccccc2F)c(CO)c1`, for which the T/C was 97 % of control (endpoint: mean survival time, dose: 100.0 mg/kg/injection, schedule: Q01DX009 (ip), vehicle: saline with Tween-80); 98 % of control (endpoint: mean survival time, dose: 200.0 mg/kg/injection, schedule: Q01DX009 (ip), vehicle: saline with Tween-80); 114 % of control (endpoint: mean survival time, dose: 400.0 mg/kg/injection, schedule: Q01DX009 (ip), vehicle: saline with Tween-80).

With `COc1ccc(-n2cccc2C(N)=O)cc1OC`, the T/C is 103 % of control (endpoint: mean survival time, dose: 100.0 mg/kg/injection, schedule: Q04DX002 (ip), vehicle: Klucel (hydroxypropylcellulose) (HPC)); 100 % of control (endpoint: mean survival time, dose: 200.0 mg/kg/injection, schedule: Q04DX002 (ip), vehicle: Klucel (hydroxypropylcellulose) (HPC)); 90 % of control (endpoint: mean survival time, dose: 400.0 mg/kg/injection, schedule: Q04DX002 (ip), vehicle: Klucel (hydroxypropylcellulose) (HPC)).

`CN(C)CCOC(=O)c1ccccc1CCl`: the T/C was 101 % of control (endpoint: mean survival time, dose: 10.0 mg/kg/injection, schedule: Q01DX009 (ip), vehicle: saline); 98 % of control (endpoint: mean survival time, dose: 20.0 mg/kg/injection, schedule: Q01DX009 (ip), vehicle: saline); 98 % of control (endpoint: mean survival time, dose: 40.0 mg/kg/injection, schedule: Q01DX009 (ip), vehicle: saline).
